# Experimental data as given in patent US8445492B2, “Method for inhibiting growth of cancer cells and cell telomere and diseases of cell proliferation by using heteroannelated anthraquinone derivative compounds” (National Defense Medical Center, priority 2008, dated 2013).
# Legend:
# Assay type in all cases: cell-based
# HOP-92 = experiment: in vitro test at 1.0×10^−5 M, Non-small cell lung cancer cell; details: 1.0×10^−5 molal concentration (M)
# T-47D = experiment: in vitro test at 1.0×10^−5 M, Breast cancer cell; details: 1.0×10^−5 molal concentration (M)
# U251 = experiment: in vitro test at 1.0×10^−5 M, CNS cancer cell; details: 1.0×10^−5 molal concentration (M)
# SF-539 = experiment: in vitro test at 1.0×10^−5 M, CNS cancer cell; details: 1.0×10^−5 molal concentration (M)
# UO-31 = experiment: in vitro test at 1.0×10^−5 M, Kidney cancer cell; details: 1.0×10^−5 molal concentration (M)
# MCF7 = experiment: in vitro test at 1.0×10^−5 M, Breast cancer cell; details: 1.0×10^−5 molal concentration (M)
# 786-0 = experiment: NCI DTP in-vitro dose response, Renal Cancer
# SW-620 = experiment: NCI DTP in-vitro dose response, Colon Cancer
# SK-OV-3 = experiment: NCI DTP in-vitro dose response, Ovarian Cancer
# TK-10 = experiment: NCI DTP in-vitro dose response, Renal Cancer
# MDA-MB-435 = experiment: NCI DTP in-vitro dose response, Breast Cancer
# UACC-62 = experiment: NCI DTP in-vitro dose response, Melanoma
# HT29 = experiment: NCI DTP in-vitro dose response, Colon Cancer
# BT-549 = experiment: NCI DTP in-vitro dose response, Breast Cancer
# OVCAR-3 = experiment: NCI DTP in-vitro dose response, Ovarian Cancer
# OVCAR-5 = experiment: NCI DTP in-vitro dose response, Ovarian Cancer
# HS 578T = experiment: NCI DTP in-vitro dose response, Breast Cancer
# HCC-2998 = experiment: NCI DTP in-vitro dose response, Colon Cancer
compound,measurement,setting,value
"CCc1nc2ccc3c(c2[nH]1)C(=O)c1ccccc1C3=O [No. 4, 2-Ethyl-1(3)H-anthra[1,2-d]imidazole-6,11-dione]",inhibition effect on cancer cell line (Table 2 value),HOP-92,41.43
same,inhibition effect on cancer cell line (Table 2 value),T-47D,63.05
same,inhibition effect on cancer cell line (Table 2 value),U251,60.13
same,inhibition effect on cancer cell line (Table 2 value),SF-539,83.16
same,inhibition effect on cancer cell line (Table 2 value),UO-31,23.94
same,inhibition effect on cancer cell line (Table 2 value),MCF7,69.82
"O=C1c2ccccc2C(=O)c2c1ccc1nsnc21 [No. 22, Anthra[2,1-c][1,2,5]thiadiazole-6,11-dione]",TGI,786-0; 786-0,1.16E−5
same,GI50,"786-0; Homo sapiens, 786-0",3.93 µM
same,CC50,"786-0; Homo sapiens, 786-0, read-out: LC50",52.7 µM
same,Percent Growth,786-0; Log10 Concentration −4.0,−71%
same,Percent Growth,786-0; Log10 Concentration −5.0,5%
same,Percent Growth,786-0; Log10 Concentration −6.0,116%
same,Percent Growth,786-0; Log10 Concentration −7.0,106%
same,Percent Growth,786-0; Log10 Concentration −8.0,105%
same,GI50,"SW-620; Homo sapiens, SW-620",8.55 µM
same,CC50,"SW-620; Homo sapiens, SW-620, read-out: LC50",69.2 µM
same,Percent Growth,SW-620; Log10 Concentration −4.0,−68%
same,Percent Growth,SW-620; Log10 Concentration −5.0,46%
same,Percent Growth,SW-620; Log10 Concentration −6.0,107%
same,Percent Growth,SW-620; Log10 Concentration −7.0,103%
same,Percent Growth,SW-620; Log10 Concentration −8.0,106%
same,TGI,SW-620; SW-620,2.52E−5
same,GI50,"SK-OV-3; Homo sapiens, SK-OV-3",2.26 µM
same,CC50,"SK-OV-3; Homo sapiens, SK-OV-3, read-out: LC50",23.6 µM
same,Percent Growth,SK-OV-3; Log10 Concentration −4.0,−97%
same,Percent Growth,SK-OV-3; Log10 Concentration −5.0,−22%
same,Percent Growth,SK-OV-3; Log10 Concentration −6.0,89%
same,Percent Growth,SK-OV-3; Log10 Concentration −7.0,90%
same,Percent Growth,SK-OV-3; Log10 Concentration −8.0,102%
same,TGI,SK-OV-3; SK-OV-3,6.35E−6
same,GI50,"TK-10; Homo sapiens, TK-10",34.9 µM
same,CC50,"TK-10; Homo sapiens, TK-10, read-out: LC50",> 100 µM
same,Percent Growth,TK-10; Log10 Concentration −4.0,−7%
same,Percent Growth,TK-10; Log10 Concentration −5.0,118%
same,Percent Growth,TK-10; Log10 Concentration −6.0,144%
same,Percent Growth,TK-10; Log10 Concentration −7.0,133%
same,Percent Growth,TK-10; Log10 Concentration −8.0,117%
same,TGI,TK-10; TK-10,8.80E−5
same,GI50,"MDA-MB-435; Homo sapiens, MDA-MB-435",1.91 µM
same,CC50,"MDA-MB-435; Homo sapiens, MDA-MB-435, read-out: LC50",87.8 µM
same,Percent Growth,MDA-MB-435; Log10 Concentration −4.0,−51%
same,Percent Growth,MDA-MB-435; Log10 Concentration −5.0,−32%
same,Percent Growth,MDA-MB-435; Log10 Concentration −6.0,82%
same,Percent Growth,MDA-MB-435; Log10 Concentration −7.0,102%
same,Percent Growth,MDA-MB-435; Log10 Concentration −8.0,100%
same,TGI,MDA-MB-435; MDA-MB-435,5.23E−6
same,GI50,"UACC-62; Homo sapiens, UACC-62",2.31 µM
same,CC50,"UACC-62; Homo sapiens, UACC-62, read-out: LC50",96.2 µM
same,Percent Growth,UACC-62; Log10 Concentration −4.0,−50%
same,Percent Growth,UACC-62; Log10 Concentration −5.0,−23%
same,Percent Growth,UACC-62; Log10 Concentration −6.0,92%
same,Percent Growth,UACC-62; Log10 Concentration −7.0,91%
same,Percent Growth,UACC-62; Log10 Concentration −8.0,89%
same,TGI,UACC-62; UACC-62,6.29E−6
same,TGI,HT29; HT29,7.36E−6
same,GI50,"HT29; Homo sapiens, HT-29",2.75 µM
same,CC50,"HT29; Homo sapiens, HT-29, read-out: LC50",81 µM
same,Percent Growth,HT29; Log10 Concentration −4.0,−53%
same,Percent Growth,HT29; Log10 Concentration −5.0,−16%
same,Percent Growth,HT29; Log10 Concentration −6.0,101%
same,Percent Growth,HT29; Log10 Concentration −7.0,105%
same,Percent Growth,HT29; Log10 Concentration −8.0,104%
same,TGI,BT-549; BT-549,3.55E−5
same,GI50,"BT-549; Homo sapiens, BT-549",13.1 µM
same,CC50,"BT-549; Homo sapiens, BT-549, read-out: LC50",96.2 µM
same,Percent Growth,BT-549; Log10 Concentration −4.0,−52%
same,Percent Growth,BT-549; Log10 Concentration −5.0,64%
same,Percent Growth,BT-549; Log10 Concentration −6.0,126%
same,Percent Growth,BT-549; Log10 Concentration −7.0,102%
same,Percent Growth,BT-549; Log10 Concentration −8.0,92%
same,GI50,"OVCAR-3; Homo sapiens, OVCAR-3",2.06 µM
same,CC50,"OVCAR-3; Homo sapiens, OVCAR-3, read-out: LC50",28.2 µM
same,Percent Growth,OVCAR-3; Log10 Concentration −4.0,−75%
same,Percent Growth,OVCAR-3; Log10 Concentration −5.0,−29%
same,Percent Growth,OVCAR-3; Log10 Concentration −6.0,86%
same,Percent Growth,OVCAR-3; Log10 Concentration −7.0,110%
same,Percent Growth,OVCAR-3; Log10 Concentration −8.0,116%
same,TGI,OVCAR-3; OVCAR-3,5.59E−6
same,GI50,"OVCAR-5; Homo sapiens, OVCAR-5",2.18 µM
same,CC50,"OVCAR-5; Homo sapiens, OVCAR-5, read-out: LC50",9.06 µM
same,Percent Growth,OVCAR-5; Log10 Concentration −4.0,−58%
same,Percent Growth,OVCAR-5; Log10 Concentration −5.0,−57%
same,Percent Growth,OVCAR-5; Log10 Concentration −6.0,105%
same,Percent Growth,OVCAR-5; Log10 Concentration −7.0,94%
same,Percent Growth,OVCAR-5; Log10 Concentration −8.0,99%
same,TGI,OVCAR-5; OVCAR-5,4.44E−6
same,TGI,HS 578T; HS 578T,>1.00E−4
same,GI50,"HS 578T; Homo sapiens, Hs-578T",5.03 µM
same,CC50,"HS 578T; Homo sapiens, Hs-578T, read-out: LC50",> 100 µM
same,Percent Growth,HS 578T; Log10 Concentration −4.0,21%
same,Percent Growth,HS 578T; Log10 Concentration −5.0,29%
same,Percent Growth,HS 578T; Log10 Concentration −6.0,100%
same,Percent Growth,HS 578T; Log10 Concentration −7.0,114%
same,Percent Growth,HS 578T; Log10 Concentration −8.0,109%
same,TGI,HCC-2998; HCC-2998,4.20E−6
same,GI50,"HCC-2998; Homo sapiens, HCC 2998",2.12 µM
same,CC50,"HCC-2998; Homo sapiens, HCC 2998, read-out: LC50",8.32 µM
same,Percent Growth,HCC-2998; Log10 Concentration −4.0,−70%
same,Percent Growth,HCC-2998; Log10 Concentration −5.0,−63%
same,Percent Growth,HCC-2998; Log10 Concentration −6.0,105%
same,Percent Growth,HCC-2998; Log10 Concentration −7.0,103%
same,Percent Growth,HCC-2998; Log10 Concentration −8.0,109%
